Laboratory results as given in patent US8901175B2 (priority 2008, dated 2014).
Where a name gives a salt, the structure may show the parent alone. Residues, ends and D or L forms follow the SMILES beside them. *: point of attachment. Cbz = O=C(OCc1ccccc1)*; CH2F = FC*

How the values were obtained:
[1] = test system: CEM cells; test: Inhibition of methadone induced apoptosis by zVAD.fmk in CEM cells; format: cell-based, human; details: 50 μM zVAD.fmk, preincubated 1 h before methadone
[2] = test system: HL-60 cells; test: Inhibition of methadone induced apoptosis by zVAD.fmk in HL-60 cells; format: cell-based, human; details: 50 μM zVAD.fmk, preincubated 1 h before methadone
[3] = test system: human lymphoblastic leukaemia T-cell line CEM; test: Induction of apoptosis in CEM cells, flow cytometry (hypodiploid DNA); format: cell-based; details: 30, 20, 15, 10 μM methadone, 24 h and 48 h
[4] = test system: human myeloid leukaemia cell line HL-60; test: Induction of apoptosis in HL-60 cells, flow cytometry (hypodiploid DNA); format: cell-based; details: 30, 20, 15, 10 μM methadone, 24 h and 48 h
[5] = test system: doxorubicin-resistant CEM leukaemia cells (CEM^DoxoR); test: Induction of apoptosis in doxorubicin-resistant CEM cells; format: cell-based, human; details: 30, 20, 15 μM methadone, 24 h and 48 h
[6] = test system: CD95-resistant leukaemia cells CEM^CD95R; test: Induction of apoptosis in CD95-resistant CEM cells; format: cell-based, human; details: 30, 20, 15 μM methadone, 24 h and 48 h
[7] = test system: HL-60 leukaemia cells; test: Western blot analysis in HL-60 cells; format: cell-based, human; details: 20, 15 μM methadone, 24 h and 48 h
[8] = test system: CEM leukaemia cells; test: Western blot analysis in CEM cells; format: cell-based, human; details: 20, 15 μM methadone, 24 h and 48 h
[9] = test system: doxorubicin-resistant leukaemia cells CEM^DoxoR; test: Western blot analysis in CEM^DoxoR cells; format: cell-based, human; details: 20, 15 μM methadone, 24 h and 48 h
[10] = test system: CD95-resistant leukaemia cells CEM^CD95R; test: Western blot analysis in CEM^CD95R cells; format: cell-based, human; details: 20, 15 μM methadone, 24 h and 48 h
[11] = test system: leukaemia cells; test: Western blot analysis in leukaemia cells (caspase-8, Bax, CD95); format: cell-based, human
Source text: Western blot analyses were done as described (Friesen et al. 2004, Friesen et al. 2003). Immunodetection of PARP, caspase-3, caspase-9, caspase-8, XIAP, CD95, CD95-L, Bax, Bcl-xL and β-actin was done using rabbit anti-PARP polyclonal antibody (1:5000, Roche), mouse-anti-caspase-3 monoclonal antibody (1:1000, Cell-Signalling), mouse-anti-caspase-8 monoclonal antibody (1:1000, Cell-Signalling), rabbit- anti-active-caspase-9 polyclonal antibody (1:1000, Cell-Signalling), mouse-anti-XIAP monoclonal antibody (1:1000, Transduction-Laboratories, Lexington, Ky.), mouse-anti-Fas (anti-CD95) monoclonal antibody (1:1000, Transduction-Laboratories), mouse-anti-Fas ligand (anti-CD95-ligand) monoclonal antibody (1:250, BD, Pharmingen), rabbit-anti-Bax polyclonal antibody (1:250, Oncogene, Cambridge), rabbit-anti-Bcl-XS/L. polyclonal antibody (1:1000, Santa-Cruz-Biotechnology, Santa-Cruz, Calif.), rabbit-anti-p21 polyclonal antibody (1:1000, Santa-Cruz), and mouse anti-β-actin monoclonal antibody (Sigma). Peroxidase-conjugated goat-anti-mouse IgG or peroxidase-conjugated goat-anti-rabbit IgG (1:5000, Santa-Cruz) as secondary antibody were used for the enhanced chemoluminescence system (ECL, Amersham-Pharmacia, Freiburg, Germany). Equal protein loading was controlled by β-actin detection.

[12] = test system: human glioblastoma cell line A172; test: Induction of apoptosis in A172 glioblastoma cells, flow cytometry; format: cell-based
[13] = test system: B-ALL (B-Cell lymphatic leukaemia) cells; test: Induction of apoptosis in B-ALL cells isolated from patients ex vivo; format: cell-based, human; details: B-ALL patient cells; 10 μM methadone; 72 h
[14] = test system: Human acute myeloid leukaemia HL-60 cell line; test: Induction of apoptosis in HL-60 cell line (5000 cells/100 μl), long incubation, flow cytometry; format: cell-based
[15] = leukaemia cells after methadone treatment
[16] = 1 μg/mL methadone in addition of 0.1 μg/mL doxorubicin, 72 h

Q: Which results are given for `CC(C)[C@H](NC(=O)OCc1ccccc1)C(=O)N[C@@H](C)C(=O)N[C@@H](CC(=O)O)C(=O)CF` [zVAD.fmk, benzoyl carbonyl-Val-Ala-Asp-fluoromethyl ketone] (Cbz-Val-Ala-Asp-CH2F)?
A: inhibition of methadone-induced apoptosis [1]: almost completely inhibited; inhibition of methadone-induced apoptosis [2]: almost completely inhibited

Q: With `CCC(=O)C(CC(C)N(C)C)(c1ccccc1)c1ccccc1` (racemic) [methadone, D, L-methadone hydrochloride] as the molecule, how does the induction of apoptosis [3] read?
A: strong induction of apoptosis

Q: What about the induction of apoptosis [4] of the same molecule?
A: strong induction of apoptosis

Q: What about the induction of apoptosis [5] of the same molecule?
A: strong induction of apoptosis

Q: And the induction of apoptosis [6]?
A: strong induction of apoptosis

Q: What about the “down regulation of Bcl-xL” value [7] of the same molecule?
A: strong down regulation

Q: What about the “down regulation of XIAP” value [7] of the same molecule?
A: strong down regulation

Q: And the “down regulation of Bcl-xL” value [8]?
A: strong down regulation

Q: What about the “down regulation of XIAP” value [8] of the same molecule?
A: strong down regulation

Q: And the “down regulation of Bcl-xL” value [9]?
A: strong down regulation

Q: And the “down regulation of XIAP” value [9]?
A: strong down regulation

Q: What about the “down regulation of Bcl-xL” value [10] of the same molecule?
A: strong down regulation

Q: And the “down regulation of XIAP” value [10]?
A: strong down regulation

Q: What about the “Activation of caspase-8” value [11, 15] of the same molecule?
A: not found

Q: What about the “Up regulation of Bax” value [11, 15] of the same molecule?
A: not found

Q: What about the “up regulation of death-inducing ligands and death-inducing receptors such as CD95” value ([11]; leukaemia cells after methadone treatment (data not shown)) of the same molecule?
A: not found

Q: And the “apoptotic effect of the combination with doxorubicin” value [12, 16]?
A: strong apoptotic effect

Q: What about the synergy with doxorubicin [12, 16] of the same molecule?
A: synergistic effects

Q: What about the “dead cells (specific cell death)” value ([12]; 20 μg/mL methadone, 120 h) of the same molecule?
A: more than 20%

Q: And the “dead cells (specific cell death)” value ([12]; 20 μg/mL methadone, 168 h)?
A: more than 80%

Q: What about the “dead cells (specific cell death)” value ([12]; 30 μg/mL methadone, 120 h) of the same molecule?
A: more than 85%

Q: And the “dead cells (specific cell death)” value ([12]; 30 μg/mL methadone, 168 h)?
A: ~100%

Q: And the “apoptosis, cells” value [13]?
A: over 80%

Q: `CN1CC[C@]23c4c5ccc(O)c4O[C@H]2[C@@H](O)C=C[C@H]3[C@H]1C5` [morphine, Morphine] was tested. Which “apoptosis, cells” value ([14]; HL-60, first study, 40 μg/mL morphine, 144 h) did it give?
A: 40%

Q: And the “apoptosis, cells” value ([14]; HL-60, second study, 1 μg/mL morphine, 168 h)?
A: more than 50%

Q: What about the “apoptosis, cells” value ([14]; HL-60, third study, 1 μg/mL morphine in combination with 0.001 μg/mL doxorubicin, 168 h) of the same molecule?
A: 50%
